Here are results for 1 compound from patent US11267826B2, “Penicillin-binding protein inhibitors” (priority 2017, dated 2022).

As usually defined, the MIC is the lowest concentration that inhibits growth of the organism.

The test system of assay [1] is E. coli DH5a with pLBII plasmid with no β-lactamase gene. The experiment in a line: Broth microdilution MIC, engineered E. coli control strain (pLBII plasmid, no β-lactamase gene). It is filed as cell-based. As to conditions: Escherichia coli, read-out: MIC, β-lactamase None. The method, then:
(§1) To determine the ability of test compounds to potentiate the inhibition of the growth of bacterial strains, classic cell based broth microdilution MIC assays were employed. MIC assays are performed according to CLSI methods except where otherwise noted (CLSI, 2011 and CLSI, 2009). The reference strain S. aureus ATCC 29213 and the hyper-permeable E. coli 901C were used to determine the ability of the PBP compounds to inhibit bacterial growth. Briefly, cryo-preserved bacterial cultures of clinical strains are streaked for isolation on appropriate agar medium, in this case Mueller Hinton II agar. Following incubation to allow formation of colonies these plates are sealed with parafilm and stored refrigerated for up to two weeks. For preparation of assay inocula and to ensure low variability, at least 5 colonies are picked from the agar plates with an inoculating loop and aseptically transferred to a culture tube containing 3 mL of Mueller-Hinton Broth (supplemented with divalent cations to required levels based on Manufacturers' certification). The broth culture is grown for 3-5 hours at 37° C. with shaking at 200 rpm. Meanwhile, 2-fold serial dilutions of test compounds are conducted in a 96 well plate with a final volume of 75 μL per well at 2-fold the final desired concentration. After the dilution plates are set up the growing cultures are then diluted in a cuvette containing MH II broth and the optical density is measured at 600 nm. Inocula are diluted such that 75 μL of this culture in Mueller-Hinton Broth results in a starting bacterial concentration of 5×10^5 CFU/mL when added to the dilution plates. The plates are incubated 16-20 hours at 37° C. The MIC is read visually as the lowest concentration well with no bacterial growth.
(§2) To determine if test compounds were affected by various known β-lactamases, the inhibition of the growth of engineered strains of Escherichia coli harboring select single β-lactamases were tested. […]
(Broth dilution looks for growth in wells or tubes with falling amounts of substance.)

In assay [2] the test system is E. coli DH5a harboring TEM-24. The experiment in a line: Broth microdilution MIC, engineered E. coli expressing TEM-24. The format is cell-based. As to conditions: Escherichia coli, read-out: MIC, β-lactamase TEM. The method, then: as §1, §2
The target in the next assay is T1, E. coli K12 PBP1b (Escherichia coli, UniProt P02919).
T1 construct: endogenous in cells; host or cells: Escherichia coli K12, membrane protein fraction
T1 sequence (P02919 whole entry): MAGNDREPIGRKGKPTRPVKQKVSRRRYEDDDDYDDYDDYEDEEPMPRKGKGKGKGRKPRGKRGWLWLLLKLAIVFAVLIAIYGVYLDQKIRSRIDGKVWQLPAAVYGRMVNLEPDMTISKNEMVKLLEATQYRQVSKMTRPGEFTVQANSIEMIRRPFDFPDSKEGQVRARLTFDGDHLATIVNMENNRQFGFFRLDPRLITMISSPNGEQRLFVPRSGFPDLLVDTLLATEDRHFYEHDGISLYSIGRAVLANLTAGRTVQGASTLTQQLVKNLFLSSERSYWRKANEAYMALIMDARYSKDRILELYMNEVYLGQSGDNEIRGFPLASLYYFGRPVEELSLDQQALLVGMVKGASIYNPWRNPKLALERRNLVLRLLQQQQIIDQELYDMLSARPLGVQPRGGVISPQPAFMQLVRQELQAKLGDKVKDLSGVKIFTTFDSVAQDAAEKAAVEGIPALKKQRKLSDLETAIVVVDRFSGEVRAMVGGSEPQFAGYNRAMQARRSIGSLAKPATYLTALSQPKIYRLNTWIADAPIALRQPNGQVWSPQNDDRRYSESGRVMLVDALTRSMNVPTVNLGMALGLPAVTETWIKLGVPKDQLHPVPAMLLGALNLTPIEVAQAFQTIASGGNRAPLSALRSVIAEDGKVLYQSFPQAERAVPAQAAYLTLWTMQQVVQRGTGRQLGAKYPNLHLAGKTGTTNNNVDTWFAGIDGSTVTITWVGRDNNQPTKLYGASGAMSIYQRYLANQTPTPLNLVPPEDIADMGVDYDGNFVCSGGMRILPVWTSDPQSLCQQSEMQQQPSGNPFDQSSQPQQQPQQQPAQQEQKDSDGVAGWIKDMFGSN
The experiment in a line: Competition binding assay using Bodipy-FL boronic acid probe (Example 125). The conditions noted are these: Bodipy-FL boronic acid probe (Example 125) 30 μM, 10 minutes pre-incubation, 10 minutes reaction. On the procedure:
Penicillin binding proteins were isolated from Escherichia coli K12 by growth of Escherichia coli K12 from a single colony in 4 L of Luria-Bertani (LB) broth at 35° C. and 250 rpm to an OD600 nm of 0.5. The cells were harvested by centrifugation at 7,000×g for 10 min. at 4° C. Cells were resuspended and washed in 50 mM potassium phosphate pH 7.5. The cells were re-suspended in sonication buffer [50 mM Tris-HCl pH 7.5, 1 mM MgCl2, 1 mM beta-mercaptoethanol, and 5 μg/mL DNAse I] and sonicated by 4 passes of 30 seconds at 45 W on ice. The sample was clarified by centrifugation at 3,000×g to remove cell debris and unbroken cells and supernatant containing the membrane proteins was retained. The membrane proteins including the PBPs were further purified from soluble constituents by an ultracentrifugation step at 100,000×g for 30 min. at 4° C. The membrane proteins are washed twice with 10 mM sodium phosphate pH 7, resuspended in a volume of 5 mL, quantitated by BCA assay, adjusted to […] and frozen at −80° C. until use.
The adapted Bocillin FL competition binding method described herein incorporates a 15 min. pre-incubation of test compound with isolated PBPs to attempt to balance the difference in mechanism of inhibition between beta-lactams (largely irreversible covalent bond to active site Serine) and the boron-containing PBP inhibitor test compounds (reversible covalent bond to active site Serine). Briefly, 50 μL reactions consisted of 100 μg's of total membrane protein extracts containing PBPs incubated with a dilution series of test compound ranging from 0.005 μg/mL to 2,480 μg/mL in 10 mM sodium phosphate pH7 containing 350 mM NaCl. Thirty minute reactions at 35° C. were initiated by addition of […] Bocillin FL, quenched by addition of SDS-PAGE loading buffer containing sodium dodecyl sulfate (SDS) and heated for 15 minutes at 95° C. to denature proteins in preparation for SDS-polyacrylamide gel electrophoresis. The Bocillin FL labeled PBPs are then separated by SDS-PAGE in Novex NuPage 10% Bis-Tris pre-cast gels (Invitrogen). The SDS-PAGE gel, post-electrophoresis, is then washed in water to remove excess SDS for 10 minutes at room temperature and placed on the scanning bed of a GE Healthcare/Amersham Biosciences Storm 860 fluorescence scanner. The excitation wavelength is in the blue spectrum at 450 nm and the emission at 520 nm is captured by the instrument. Effective PBP inhibitors are detected by a reduction in Bocillin FL labeling of the particular PBP over the dose range of test compound in a dose-responsive manner. High molecular weight PBP 1a/1b are not resolved by these gels, thus we report HMW PBP binding results in μg/mL for PBPs 1a/1b combined as well as for PBP2 and PBP3.
To determine the ability of boronic acid-based test PBP inhibitors to bind Penicillin Binding Proteins (PBPs), a competition binding assay using a Bodipy-FL-labeled boronic acid PBP inhibitor (Example 125) was adapted from the classical method used to assess PBP potency of beta-lactams using Bocillin-FL (fluorescently-labeled penicillin V). The method is identical to that described in Example I for the Bocillin-FL competition binding assay with the following exceptions, the Bodipy-FL boronic acid probe (Example 125) is used at a final concentration of 30 μM, pre-incubation time of test compound with PBP enzymes is 10 minutes and reaction time is set for 10 minutes and reactions are prepared for SDS-PAGE analysis by simply adding SDS-containing loading buffer. Representative results are shown in Table 5, where A represents a potency of >1000 μg/mL, B represents a potency between 64 and 1000 μg/mL inclusive, and C represents a potency of <64 μg/mL. NT=Not Tested.

The next assay has as its system E. coli K12 PBP1a/b. Kind of assay: Bocillin FL competition binding assay, PBP1a/1b combined. Further details: species or system Escherichia coli K12. The conditions noted are these: 15 min pre-incubation, PBP 1a/1b combined. The method, boiled down:
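E. coli K12 membrane extracts (100 µg protein) pre-incubated 15 min with compound (0.005–2,480 µg/mL) in pH 7 phosphate/350 mM NaCl, then labelled with Bocillin FL 30 min at 35°C; SDS-PAGE fluorescence (ex 450/em 520 nm), μg/mL reported. PBP1a/1b unresolved, reported combined.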

Assay [3] concerns E. coli DH5a harboring SHV-5. Kind of assay: Broth microdilution MIC, engineered E. coli expressing SHV-5. It is filed as cell-based. The conditions noted are these: Escherichia coli, read-out: MIC, β-lactamase SHV. On the procedure: as §1, §2

With `Nc1nc(/C(=N/O)C(=O)N[C@H]2Cc3cccc(C(=O)O)c3OB2O)cs1` [Example 6, (R,Z)-3-(2-(2-aminothiazol-4-yl)-2-(hydroxyimino)acetamido)-2-hydroxy-3,4-dihydro-2H-benzo[e][1,2]oxaborinine-8-carboxylic Acid], the minimum inhibitory concentration (MIC) in assay [1], in assay [2] and in assay [3] was 16 µg/mL each time. For the same compound, at E. coli K12 PBP1b, the “E. coli K12 PBP1b Potency” value was “C (C represents a potency of <64 μg/mL)”. Also, the “E. coli K12 PBP1a/b Potency” value in the assay with E. coli K12 PBP1a/b is recorded as “C (C represents a potency of <64 μg/mL)”.
